Consider 3 molecules from patent US20260355184A1, “SMALL MOLECULE DEGRADERS OF HIV-1 TAT PROTEIN” (priority 2022, published 2026).

Some results are limits rather than exact numbers.

Series [1] is described as follows: Cytotoxicity assay, Cell-Titer-Glo, HeLa-CD4-LTR-LacZ. To be noted: human, hela-cd4-ltr-lacz cells, Infectivity CC50, HeLa-CD4-LTR-LacZ. In outline: (§1)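 HeLa-CD4-LTR-LacZ reporter cells (β-Gal under HIV 5′ LTR) infected with HIV NL4.3; β-Gal activity read 72 h post infection, with parallel Cell-Titer-Glo viability. OM10.1 carry a single wild-type provirus; ACH-2 a single provirus with TAR C37T mutation, defective Tat-TAR feedback.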

The subject of another series is HeLa-CD4-LTR-LacZ cells. Described as above. As to conditions: Cell-Titer-Glo in parallel to infectivity assay. The procedure, abridged: as §1
The subject of another series is GFP. The series is described as follows: Degradation assay control: GFP in HEK293T cells, western blot. The class given is cell-based. As for the experimental part: (§2) Next, the effect of the three leads on the alteration of Tat steady state levels was assessed. Tat expression from an integrated provirus, or from HIV acute infection is generally too low to be detected by western blot. Furthermore, antibodies against Tat are known for their lack of avidity. Tat degradation was thus assessed upon transfection. Flag-Tat or Flag-GFP were individually transfected into HEK293T and 24 hrs later, TT-44856, TT-44863 or TT-44881 were added to the culture, followed by Western blot 24 hrs later (dubbed “degradation assay”) (FIG. 5A). […] Finally, the leads' impact on recombinant Tat protein in HEK293T cells was assessed (FIG. 5D). HEK293T cells were incubated with recombinant Tat for 4 hrs to allow Tat internalization, followed by several thorough washes to remove unincorporated Tat. Cells were then incubated with all three leads (or Triptolide) for an additional 2 hrs. Cells were lysed and analyzed by western blot with an anti-Tat serum.
For orientation: Immunoblotting shows a protein as a band on a membrane.

The test system of the next series is Tat or GFP mRNA. The series is described as follows: Tat or GFP mRNA expression in HEK293T cells. Format: cell-based. As to conditions: n=3.
The target in another series is Flag-Tat and GFP (Human immunodeficiency virus type 1 (HXB3 ISOLATE), UniProt P69698). In words: J-Lat A2 cells stimulated with TNF-α, western blot of Flag-Tat and GFP. The class given is cell-based, HIV. As to conditions: TNF-α 20 ng/mL, 17 hours. How it is done: FIG. 5. […] Triptolide: 1 nM, TT-44856 and TT-44863: 40 μM, TT-44881: 60 μM. […] C. Impact of the lead hits on J-Lat A2 cells upon 17 hours stimulation with TNF-α (20 ng/mL). EPL: 10 μM, Triptolide (TRP): 1 nM, TT-44856 and TT-44863: 40 μM, TT-44881: 60 μM. […] Triptolide: 1 nM, TT-44856 and TT-44863: 40 μM, TT-44881: 60 μM.
as §2

The next series has as its target T1, recombinant Tat (Human immunodeficiency virus type 1 (HXB3 ISOLATE), UniProt P69698).
T1 construct: detected with anti-Tat serum
The series is described as follows: Recombinant Tat stability in HEK293T cells, western blot. Format: cell-based, HIV. To be noted: 4 hrs recombinant Tat then 2 hrs compound, n=1. As for the experimental part:
as §2

A further series concerns the target Tat F38A (Human immunodeficiency virus type 1 (HXB3 ISOLATE), UniProt P69698, F38A). As to conditions: TT-44856 and TT-44863 40 μM, TT-44881 60 μM. The source says: (§3) The molecular docking of HIV Tat protein bound to dCA was previously reported, informed by a series of more than 60 analogs of dCA, using AutoDock Vina with the NMR HIV Tat Mal protein (D clade) as a template (Protein data Bank, PDB entry 1K5K)21. […] Single changes to residues Y26 and F38 decrease Tat transactivation activity^33-36. […] To validate the molecular docking model, Tat variants with either deletions or mutated residues were used in degradation assays in the presence of leads.

A further series deals with Tat Y26A (Human immunodeficiency virus type 1 (HXB3 ISOLATE), UniProt P69698, Y26A). To be noted: TT-44856 and TT-44863 40 μM, TT-44881 60 μM.
From the text: as §3

The target of series [2] is Tat variants with cysteine or core regions truncated (Human immunodeficiency virus type 1 (HXB3 ISOLATE), UniProt P69698). As to conditions: TT-44856 and TT-44863 40 μM, TT-44881 60 μM.
From the text: as §3

A further series deals with HIV Tat. In words: Tat-TAR assay (HIV LTR luciferase transactivation, PL11 cells). The class given is cell-based. As to conditions: for activity against Tat 86 a.a. from different HIV clades: HIV clade B, C and E, n=1; for IC50 against Tat 86 and 101 residues (comparison): Tat 86 a.a. vs 101 a.a. From the text: Tat is a 14 kDa protein that is synthesized from an mRNA joined from 2 coding exons (FIG. 1B). The first exon encodes amino acids 1-72 and (in most strains of HIV), the second exon encodes amino acids 73-101. An N-terminal 86-amino acid form of Tat produced in a few laboratory-passaged virus strains is frequently used to study Tat. The classic cell-based Tat transactivation assay of the HIV LTR driving luciferase was optimized as a reporter gene for HTS9 (FIG. 2A). […] LTR activation is triggered by transfection of a plasmid expressing HIV-1HXB3 Tat (101 a.a.) driven by the phosphoglycerate (PGK) promoter.

The subject of a further series is PL11 cells. The series is described as follows: Tat independent transactivation counter-screen with TNFα, PL11 cells. The class given is cell-based. As to conditions: PL11 cells activated with TNFα. From the text:
Tat is a 14 kDa protein that is synthesized from an mRNA joined from 2 coding exons (FIG. 1B). The first exon encodes amino acids 1-72 and (in most strains of HIV), the second exon encodes amino acids 73-101. An N-terminal 86-amino acid form of Tat produced in a few laboratory-passaged virus strains is frequently used to study Tat. The classic cell-based Tat transactivation assay of the HIV LTR driving luciferase was optimized as a reporter gene for HTS9 (FIG. 2A). The assay concept is exceptionally robust, includes all the cellular components needed for transcriptional activation, and is very well-suited for an HTS for Tat antagonists. Compared with alternative approaches, this classic assay consistently outperformed the others. […] LTR activation is triggered by transfection of a plasmid expressing HIV-1HXB3 Tat (101 a.a.) driven by the phosphoglycerate (PGK) promoter. The assay called “Tat-TAR assay” was validated, and found robust and very well suited for an HTS platform, with a signal to background ratio of 407:1, a signal to noise ratio of 10:1, and a Z′=0.67. The cytotoxicity screen was performed in parallel (Cell-Titer-Glo, Promega), showing a signal to background ratio 898:1, signal to noise ratio 21:1 and a Z′=0.86. […] These hits were counter-screened in a Tat independent transactivation assay using TNFα to activate PL11 cells, resulting in the selection of 30 hits.

Tat Y26A, sequence (P69698 whole entry Y26A): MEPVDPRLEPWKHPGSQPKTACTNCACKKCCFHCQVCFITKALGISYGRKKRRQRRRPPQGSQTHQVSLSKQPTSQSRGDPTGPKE
Flag-Tat and GFP, sequence (P69698 whole entry): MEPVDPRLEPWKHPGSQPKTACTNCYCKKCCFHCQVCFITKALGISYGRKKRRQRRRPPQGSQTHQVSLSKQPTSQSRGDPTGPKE
T1 sequence (P69698 whole entry): as above
Tat F38A, sequence (P69698 whole entry F38A): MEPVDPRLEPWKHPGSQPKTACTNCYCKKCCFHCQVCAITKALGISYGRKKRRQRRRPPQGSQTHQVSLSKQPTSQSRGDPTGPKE

One may read the CC50 as the concentration at which the toxic effect on the cells reaches its halfway point. With `COCCOc1ccc(C(F)(F)F)cc1NC(=O)Cn1cc(C(F)(F)F)cc(Cl)c1=O` [TT-44863], the CC50 in series [1] (analogs of TT-44863 (Table 2)) was over 800 µM. In the series with HeLa-CD4-LTR-LacZ cells, the toxicity entry is reported as “without signs of toxicity”. In addition, the “effect on GFP expression” value with GFP is on record as “did not affect GFP expression”. For the same molecule, in the series on Tat or GFP mRNA, the “effect on Tat or GFP mRNA expression” value is “without affecting Flag-Tat mRNA levels”. Also, the “Flag-Tat and GFP levels in J-Lat A2 cells” value (from here on “Flag-Tat and GFP levels”) at Flag-Tat and GFP is recorded as “strongly reduced”. Also, the “recombinant Tat degradation” value on recombinant Tat was “degraded Tat as opposed to the DMSO control”. For the same molecule, on Tat F38A, the “Tat degradation, F38A mutation” value is “only weakly reduced lead hits mediated degradation”. Besides, the “Tat degradation, Y26A mutation” value on Tat Y26A was “ablated lead hits' ability to mediate Tat degradation”. For the same molecule, the “Flag-Tat degradation, cysteine or core regions truncated” value (“Flag-Tat degradation” below) in series [2] is “no longer degraded Flag-Tat”. In addition, in the series on HIV Tat, the “activity against Tat 86 a.a. from different HIV clades” value (“activity … from different HIV clades” below) is listed as “activity was confirmed”; the “IC50 against Tat 86 and 101 residues (comparison)” value (“IC50” below) is listed as “Equivalent IC50”. In the series with PL11 cells, the “Tat specificity in TNFα counter-screen” value was “Tat specific”.
Consider `O=C(CCCCN1CCCC1=O)c1nn(-c2ccccc2)c2c1CCC2` [TT-44881], for which the CC50 in series [1] (analogs of TT-44881 (Table 1)) is over 100 µM. Also, the toxicity entry in the series on HeLa-CD4-LTR-LacZ cells is recorded as “without signs of toxicity”. Further, in the series on GFP, the “effect on GFP expression” value was “did not affect GFP expression”. In addition, the “effect on Tat or GFP mRNA expression” value with Tat or GFP mRNA was “without affecting Flag-Tat mRNA levels”. Moreover, on Flag-Tat and GFP, the “Flag-Tat and GFP levels” value is listed as “strongly reduced”. Besides, the “recombinant Tat degradation” value on recombinant Tat is “degraded Tat as opposed to the DMSO control”. The “Tat degradation, F38A mutation” value on Tat F38A is listed as “only weakly reduced lead hits mediated degradation”. In addition, the “Tat degradation, Y26A mutation” value at Tat Y26A is given as “ablated lead hits' ability to mediate Tat degradation”. The “Flag-Tat degradation” value in [2] is “no longer degraded Flag-Tat”. In the series with HIV Tat, the “activity … from different HIV clades” value is reported as “activity was confirmed”; the “IC50” value is “Equivalent IC50”. For the same molecule, the “Tat specificity in TNFα counter-screen” value with PL11 cells was “Tat specific”.
In series [1] (analogs of TT-44856 (Table 3)), `CC(C(=O)NCCCn1ccnc1)(c1ccccc1)c1ccccc1` [TT-44856] had a CC50 of over 100 µM. Further, the toxicity result in the series on HeLa-CD4-LTR-LacZ cells is “without signs of toxicity”. The “effect on GFP expression” value in the series on GFP is “did not affect GFP expression”. In addition, the “effect on Tat or GFP mRNA expression” value in the series with Tat or GFP mRNA is on record as “without affecting Flag-Tat mRNA levels”. Besides, the “Flag-Tat and GFP levels” value at Flag-Tat and GFP is listed as “strongly reduced”. In addition, the “recombinant Tat degradation” value on recombinant Tat is “degraded Tat as opposed to the DMSO control”. For the same molecule, the “Tat degradation, F38A mutation” value at Tat F38A is “only weakly reduced lead hits mediated degradation”. In addition, the “Tat degradation, Y26A mutation” value on Tat Y26A is reported as “ablated lead hits' ability to mediate Tat degradation”. For the same molecule, in series [2], the “Flag-Tat degradation” value was “no longer degraded Flag-Tat”. Besides, in the series with HIV Tat, the “activity … from different HIV clades” value is recorded as “activity was confirmed”; the “IC50” value is “Equivalent IC50”. For the same molecule, the “Tat specificity in TNFα counter-screen” value with PL11 cells is on record as “Tat specific”.
